The term melting point denotes the temperature of the solid-liquid transition. On to `O=S(=O)(Nc1cc(Br)nc(Br)c1)c1cccc(C(F)(F)F)c1`, for which the melting point lay in the range of 149 to 151 °C.

Take `C[C@@H]1Cc2cc3c(cc2C(c2ccc([N+](=O)[O-])c(Cl)c2)=NN1C(=S)NN)OCO3`: the melting point fell in the range of 126 to 127 °C.

In turn, `O=C1C[C@]2(CCCC[C@H]2Cc2ccccc2)S(=O)(=O)CCN1Cc1cccnc1` registered a melting point of 220 to 221 °C.

With `O=C(O)c1csc2c1OC(c1ccccc1)(C1CCCCC1)CC2=O` (stereo not given), the melting point is 269 to 275 °C.

On to `CCOc1ccc(C(C)=O)cc1C(=O)Nc1c(C)cccc1C(N)=O`, for which the melting point lay in the range of 214 to 216 °C.

In the case of `CC(C)c1cc(CCCOc2ncccc2CC(=O)O)n(Cc2ccc(C(F)(F)F)cc2Cl)n1`, the melting point lay within 114 to 115 °C.

In turn, `O=C(O)c1cccc(OCc2ccc3ccccc3n2)c1` had a melting point of 178 to 182 °C.

Turning to `Cn1c(=O)[nH]c2cc(F)ccc21`, the melting point turned out to be 207 °C.

Take `CON(C)C(=O)Nc1ccc(OCCc2ccc(C)cc2C)cc1`: the melting point is 95 to 95.5 °C.

The compound `COC=C(C(=O)OC)N(C)c1ccnc(-c2ccccc2)n1` gave a melting point of 152 to 154 °C.

As to `Cc1nc2c(N)nc3ccccc3c2n1CCCS(C)(=O)=O`, the melting point lay within 225 to 228 °C.

Regarding `C#CC(=O)c1cc(C(C)(C)C)c(O)c(C(C)(C)C)c1`, the melting point was 100 to 101 °C.

Compound `CCC(=O)c1cccc(C(=O)Nc2ccccn2)c1` returned a melting point of 128 to 129 °C.

On to `CCOC(=O)C(=O)c1csc(NC(=S)Nc2ccccc2F)n1`, for which the melting point is 192 to 193 °C.

On to `COc1ccc2c(c1)NC(=O)CC(C(=O)O)C2` (stereo not given), for which the melting point is 202 to 204 °C.

For the compound `OCc1cccc(C(O)c2cc(C(F)(F)F)nc3c(C(F)(F)F)cccc23)c1` (stereo not given), the melting point was 152 to 154 °C.

Regarding `CCOC(=O)c1cn2c(cc(OC)c3cc(OC)c(OC)cc32)n1`, the melting point lay within 195 to 197 °C.

Turning to `Oc1cccc2c1CCC2N1CCCCC1` (stereo not given), the melting point lay within 134 to 136 °C.

On to `CC(=O)Nc1ccc(C(=O)NC2=Nc3cc(N4CCOCC4)ccc3C3=NCCN23)cn1`, for which the melting point came to 228 °C.

Regarding `COC(=O)c1cc(O)c2c(ccc3sc4ccc(F)cc4c32)n1`, the melting point is 269 to 271 °C.

Compound `CC(C)n1c(C(F)(F)F)cnc1-c1ccc(O)cc1` yielded a melting point of 249 to 250 °C.

The compound `O=C(CBr)Nc1ccc(I)cc1` returned a melting point of 185 °C.

`Cc1c(NC(=O)CC(C)(C)C)cc2c(c1C)OC(C)(C)C2=O` showed a melting point of 175 to 176 °C.

The compound `CC(C)Cn1c(C(=O)O)c(OCCCC(F)(F)F)c2cc(OCc3ccccc3)ccc2c1=O` returned a melting point of 130 to 131 °C.

As for `CC(C)(C)OC(=O)Nc1c(C#N)cnn1-c1ccc(Cl)c(Cl)c1Cl`, the melting point was in the range of 140 to 141 °C.

`O=c1c2ccc(Cl)cc2[nH]c2c(O)nn(CC#Cc3ccccc3Cl)c(=O)c12` registered a melting point of 255 to 257 °C.

`COC=C(C(=O)OC)c1ccccc1Oc1ncnc(F)c1Cl` yielded a melting point of 102 °C.

The compound `CC(=O)c1cc2nc(SCc3nccc4c3OCO4)[nH]c2cc1C` yielded a melting point of 141 to 143 °C.

`CC(S)C(=O)NCCc1ccccc1` (stereo not given) displayed a melting point of 78 to 79 °C.

With `CC(C)[C@H](N)C(=O)OCc1nc2c(N)nc3ccccc3c2n1CCCCNS(C)(=O)=O`, the melting point fell in the range of 161 to 163 °C.

The compound `CCC(=CC(CNC(=O)c1ccc(N)nc1)=NO)C(C)[N+](=O)[O-]` (stereo not given) displayed a melting point of 157 to 161 °C.

In turn, `COC(=O)CCCc1cc2nc(Cl)ccc2n1S(=O)(=O)c1cccc(Cl)c1` came in with a melting point of 107 °C.

The compound `CSCC(=O)[C@H](Cc1ccccc1)NC(=O)[C@H](CC(C)C)NC(=O)CCc1ccccc1` gave a melting point of 104 to 107 °C.

On to `O=C1Nc2ccccc2C(c2ccccc2F)CC1Br` (stereo not given), for which the melting point lay in the range of 208 to 214 °C.

As to `COC(=O)c1cc(-c2nc(CCl)c(C)o2)ccc1C`, the melting point is 89 to 90 °C.

`CCCCCCCCCCCCNC(=S)C1(c2ccccn2)CCCS1` (stereo not given): the melting point is 60 °C.

`O=c1nc(-c2ccccn2)sc2ccc(OCc3ccccc3)cc12` registered a melting point of 198 to 199 °C.

Consider `N#CC1CN1C(=O)CNC(N)=O` (stereo not given), for which the melting point was 110 to 114 °C.

With `O=[N+]([O-])c1ccc2c(c1)CCC(COC1CCCCO1)O2` (stereo not given), the melting point turned out to be 66.4 °C.

Regarding `Cc1cc(C(=O)c2[nH]c(=O)[nH]c(=O)c2C(C)C)cc([N+](=O)[O-])c1`, the melting point lay within 124 to 125 °C.

In turn, `C[C@H](NC(=O)CCn1cc(C2=C(c3cn(C)c4ccccc34)C(=O)NC2=O)c2ccccc21)C(=O)O` yielded a melting point of 240 to 255 °C.

For the compound `CC(C)C1=Cc2cc(OCC(=O)O)c(Cl)c(Cl)c2C1=O`, the melting point is 176 °C.

Compound `CC(=O)N1CCN(c2ccc(NS(C)(=O)=O)c(C)c2)CC1` yielded a melting point of 153 to 154 °C.

Compound `COc1cccc2ocnc12` registered a melting point of 72 to 74 °C.

In turn, `O=C1NC(N2CCCCCC2)=N/C1=C\c1c[nH]c2ncc(C(F)(F)F)cc12` registered a melting point of 340 °C.

In the case of `CCOC(=O)CN(CP(=O)(ONN1CCOCC1)ONN1CCOCC1)C(=O)C(F)(F)F`, the melting point lay in the range of 69 to 74 °C.

Consider `Cn1ccnc1-c1ccc(-c2cnc([C@H](Cc3ccccn3)N(C=O)c3cc4ccccc4[nH]3)n2C)cc1`, for which the melting point was in the range of 218 to 222 °C.

As to `O=CNc1ccc(SC(CCc2ccc(Cl)cc2)Cn2ccnc2)cc1` (stereo not given), the melting point lay within 91 to 94 °C.

In turn, `c1ccc(-c2cnc(NC3=NCC4(CN5CCC4CC5)O3)s2)cc1` (stereo not given) returned a melting point of 187 to 189 °C.

Regarding `C[C@@H]1C(=O)N(CO)Cc2ccccc2[C@@H]1C` (relative stereo), the melting point was 91 to 92 °C.

The compound `CN1C(=O)CC(c2ccccc2)C1C(O)c1ccc(-c2ccc(F)c(Cl)c2)s1` (stereo not given) gave a melting point of 194 °C.

`CCn1c(CO)nc(C(C)C)c1Sc1cccc(Cl)c1` returned a melting point of 99 to 100 °C.

Turning to `O=C1CC(Cc2cccc(Cl)c2)CN1` (stereo not given), the melting point fell in the range of 117 to 119 °C.

`Cn1nc(-c2cccc(-n3ncc4cc(C(C)(C)C)cc(F)c4c3=O)c2CO)cc(Nc2ccn(C[C@@H](O)CO)n2)c1=O` came in with a melting point of 245 to 250 °C.

The compound `CCCn1nc2c(N)nc3ccccc3c2c1CC(C)(C)N` gave a melting point of 193 to 195 °C.

As to `CS(=O)(=O)NCCCCn1c(CCCOc2ccccc2)nc2c(N)nc3ccccc3c21`, the melting point was 156 to 157 °C.

Compound `CNC(=O)NCc1cccc(-c2csc(N=C(N)N)n2)n1` registered a melting point of 205 to 206 °C.

Consider `CCc1cc(C(=O)c2ccccc2Cl)c(-n2c(CC)nnc2CNC(=O)c2ccc(Cl)c(Cl)c2)s1`, for which the melting point lay in the range of 136 to 138 °C.

With `CN(C(=O)C(F)(F)F)C(C(=O)O)c1ccc(Cl)cc1` (stereo not given), the melting point is 117 to 118 °C.

For `CCCn1c(-n2nc(-c3c(-c4ccccc4)nn4ccccc34)ccc2=O)cc(=O)n(CCC)c1=O`, the melting point amounted to 155 °C.

`CC(C)=CCCC(C)=CCCC(C)=CCCC(C)=CC=C1SC(=S)N(CC(=O)O)C1=O` had a melting point of 35 to 37 °C.

Compound `CCc1oc(CCOc2ccc(N)cc2)nc1-c1ccccc1` yielded a melting point of 89 to 90 °C.

In turn, `CCCCNc1c(C)cccc1C` returned a melting point of 124 to 131 °C.

For the compound `O=C(O)c1cc(=O)c2c([nH]1)-c1ccccc1SC2`, the melting point lay in the range of 256 to 257 °C.

On to `CC(C(=O)O)c1ccc(-c2ccc(O)cc2)cc1` (stereo not given), for which the melting point is 205 to 206 °C.

In turn, `O=C1CC2(CCCC2)CC(=O)N1c1cccnc1` yielded a melting point of 153 to 154 °C.

`COc1cccc(OC)c1-c1ccc(C[C@H](NC(=S)c2c(Cl)cccc2Cl)C(=O)O)cc1` showed a melting point of 180 °C.

In the case of `O=C(Cc1ccccc1C1CCCC1)N[C@H]1CCN(CCc2ccccc2)C1`, the melting point is 117 to 119 °C.

`Cc1cc(NC(=O)NN(c2ccccc2)c2cccc(C#N)c2)ccc1N1CCCCC1=O` registered a melting point of 161 to 162 °C.

Compound `CNC(=O)C(=O)CCCCCCSc1ccc(-c2ccccc2)cc1` returned a melting point of 131 to 132 °C.

`N#CCC(CC#N)c1cccc(Cl)c1Cl` came in with a melting point of 76 to 78 °C.

In turn, `Cc1c2c(c(C(O)c3ccccn3)c(C)c1NC(=O)CC(C)(C)C)OC(C)(C)C2` (stereo not given) had a melting point of 176 to 177 °C.

`COC(=O)CCc1cc2cc(Cl)ccc2n1S(=O)(=O)c1cccc2c(C(=O)CN)cccc12`: the melting point was in the range of 206 to 210 °C.

Take `CCOC(=O)C1=C(C)Nc2nc(N(C)C)nc(N)c2C1c1ccccc1C(F)(F)F` (stereo not given): the melting point came to 210 °C.

In turn, `O=C(C=Cc1ccccc1S(=O)(=O)Nc1ccccc1)NO` had a melting point of 205 to 206 °C.

In turn, `Cc1cc(COc2ccc(C(=O)NC[C@@H](C(=O)NO)N3CCN(S(C)(=O)=O)CC3)cc2)c2ccccc2n1` had a melting point of 175 °C.

Consider `[N-]=[N+]=NC(=O)c1csc(Cl)n1`, for which the melting point is more than 250 °C.

`CNC(=O)Cn1c(-c2ccccn2)nc2cccnc21` displayed a melting point of 228 to 230 °C.

`CCC[C@H]1C(=O)N(S(=O)(=O)c2ccc3ccccc3c2)[C@H]2CCN(S(C)(=O)=O)[C@H]12` (relative stereo): the melting point fell in the range of 257 to 260 °C.

Compound `Cc1c(C)n(CC=CC(F)(F)F)c2c(OCc3ccccc3)nncc12` registered a melting point of 138 to 140 °C.

In the case of `O=C1CCC(c2ccc(Cl)cc2)c2ccccc2N1` (stereo not given), the melting point fell in the range of 209 to 212 °C.

In the case of `Cn1ncnc1COc1nn2c(-c3c(F)cccc3F)nncc2c1-c1ccccc1F`, the melting point came to 163 °C.

The compound `O=C1CCCCN1S(=O)(=O)c1ccc(N2CCCCCC2)cc1` had a melting point of 85 to 88 °C.

As to `CN(C)C(=O)COc1ccc2ccc(N)nc2n1`, the melting point was 182 °C.

As for `CC(=O)N1CCC(C(=O)Nc2ccccc2Oc2ccc(Cl)cc2Cl)CC1`, the melting point was 194 to 196 °C.

With `Cc1nsc(SCC2=C(C(=O)OC(c3ccccc3)c3ccccc3)N3C(=O)C(N)(N)C3SC2)n1` (stereo not given), the melting point fell in the range of 157 to 159 °C.

Consider `COC1C(O)C(CO)OC1n1cnc2c(NC3CC=CCC3c3cccs3)ncnc21` (stereo not given), for which the melting point lay in the range of 86 to 89 °C.

Regarding `CC(=O)Nc1ccc2c(c1)C(=O)N(CCO[N+](=O)[O-])CO2`, the melting point fell in the range of 141 to 142 °C.

With `COCc1cc2c(NC(=S)N3Cc4ccccc4CC3CCO)cccc2cn1` (racemic), the melting point is 152 °C.

`O=C(O)c1cnc2cc(O)ccc2c1` returned a melting point of more than 260 °C.

For the origin of these results see a melting point compilation (Tetko et al.; mined from patent text by program, amines drawn as free bases though some values may be those of a salt).
